From patent US11911386B2, “Methods of treating B-cell proliferative disorder” (BeiGene Switzerland GmbH, priority 2022, dated 2024)
“And” between values parts separate entries of the source, which are not always exact repeats. Identical values can stand only once. Like-named read-outs stand apart in the source and are kept apart here.

C=CC(=O)N1CCC([C@@H]2CCNc3c(C(N)=O)c(-c4ccc(Oc5ccccc5)cc4)nn32)CC1 [zanubrutinib, (S)-7-(1-acryloylpiperidin-4-yl)-2-(4-phenoxyphenyl)-4,5,6,7-tetrahydropyrazolo[1,5-a]pyrimidine-3-carboxamide]
Anemia AESI ≥Grade 3, EAIR (After Coadministration): 0.18 per 100 person-months
Anemia AESI, EAIR (After Coadministration): 0.53 per 100 person-months
Atrial fibrillation PT (After Coadministration): 2.8%
Atrial fibrillation and flutter AESI Grade ≥3, EAIR (After Coadministration): 0.18 per 100 person-months
Atrial fibrillation and flutter AESI Grade ≥3, patients (After Coadministration): 3.7%
Atrial fibrillation and flutter AESI, EAIR (After Coadministration): 0.23 per 100 person-months
Atrial fibrillation and flutter AESI, patients (After Coadministration): 4.7%
Atrial flutter PT (After Coadministration): 1.9%
Basal cell carcinoma (After Coadministration): 5.6%
Basal cell carcinoma leading to dose interruption (After Coadministration): 1 (0.9%) n (%)
Basal cell carcinoma ≥Grade 3 (After Coadministration): 1 (0.9%) n (%)
External ear neoplasm malignant leading to dose interruption (After Coadministration): 0 (0.0%) n (%)
Febrile neutropenia PT (After Coadministration): 3.7%
Grade 3 or higher AESI (After Coadministration): 48 (44.9) n (%)
Haematuria (hemorrhage AESI) (After Coadministration): 4.7%
Haematuria (major hemorrhage) (After Coadministration): 0 (0.0%) n (%)
Haematuria (major hemorrhage) ≥Grade 3 (After Coadministration): 0 (0.0%) n (%)
Haematuria leading to dose interruption (After Coadministration): 0.0%
Haematuria ≥Grade 3 (After Coadministration): 0 (0.0%) n (%)
Hemorrhage AESI leading to dose interruption (After Coadministration): 2.8%
Hemorrhage AESI leading to dose reduction (After Coadministration): 0.9%
Hemorrhage AESI ≥Grade 3, EAIR (After Coadministration): 0.09 per 100 person-months
Hemorrhage AESI ≥Grade 3, patients (After Coadministration): 1.9%
Hemorrhage AESI, EAIR (After Coadministration): 1.39 per 100 person-months
Hemorrhage AESI, patients (After Coadministration): 23.4%
Hypertension AESI ≥Grade 3, EAIR (After Coadministration): 0.18 per 100 person-months
Hypertension AESI ≥Grade 3, patients (After Coadministration): 3.7%
Hypertension AESI, EAIR (After Coadministration): 0.37 per 100 person-months
Hypertension AESI, patients (After Coadministration): 7.5%
Infection AESI leading to dose reduction (After Coadministration): 1.9%
Infection AESI leading to treatment discontinuation (After Coadministration): 3.7%
Infection AESI ≥Grade 3, EAIR (After Coadministration): 1.45 per 100 person-months
Infection AESI, EAIR (After Coadministration): 9.70 per 100 person-months
Major hemorrhage AESI leading to dose interruption (After Coadministration): 0.9%
Major hemorrhage AESI ≥Grade 3, EAIR (After Coadministration): 0.09 per 100 person-months
Major hemorrhage AESI ≥Grade 3, patients (After Coadministration): 1.9%
Major hemorrhage AESI, EAIR (After Coadministration): 0.09 per 100 person-months
Major hemorrhage AESI, patients (After Coadministration): 1.9%
Malignant melanoma (After Coadministration): 1 (0.9%) n (%)
Neutropenia AESI leading to dose reduction (After Coadministration): 1.9%
Neutropenia AESI leading to treatment interruption (After Coadministration): 6.5%
Neutropenia AESI ≥Grade 3, EAIR (After Coadministration): 0.63 per 100 person-months
Neutropenia AESI ≥Grade 3, patients (After Coadministration): 20.1%
Neutropenia AESI, EAIR (After Coadministration): 0.92 per 100 person-months
Neutropenia AESI, patients (After Coadministration): 16.8%
Neutropenic sepsis PT (After Coadministration): 0.0%
Neutropenic sepsis ≥Grade 3 (After Coadministration): 0.0%
Neutrophil count decreased leading to dose reduction (After Coadministration): 0.0%
Opportunistic infection AESI leading to dose reduction (After Coadministration): 0.9%
Opportunistic infection AESI leading to treatment discontinuation (After Coadministration): 0.9%
Opportunistic infection AESI ≥Grade 3, EAIR (After Coadministration): 0.04 per 100 person-months
Opportunistic infection AESI ≥Grade 3, patients (After Coadministration): 1 (0.9%) n (%)
Opportunistic infection AESI, EAIR (After Coadministration): 0.13 per 100 person-months
Opportunistic infection AESI, patients (After Coadministration): 2.8%
Opportunistic infection SAEs, EAIR (After Coadministration): 0.04 per 100 person-months
Patients with at least 1 AESI (After Coadministration): 89 (83.2) n (%)
Petechiae (hemorrhage AESI) (After Coadministration): 0.0%
Platelet count decreased PT (After Coadministration): 4.7%
Platelet count decreased ≥Grade 3 (After Coadministration): 0.9%
Purpura (hemorrhage AESI) (After Coadministration): 0.0%
SAEs of opportunistic infections, patients (After Coadministration): 0.9% and 2.8%
Second primary malignancies AESI leading to dose interruption (After Coadministration): 5.6%
Second primary malignancies AESI leading to treatment discontinuation (After Coadministration): 2.8%
Second primary malignancies AESI ≥Grade 3, EAIR (After Coadministration): 0.27 per 100 person-months
Second primary malignancies AESI ≥Grade 3, patients (After Coadministration): 5.6%
Second primary malignancies AESI, EAIR (After Coadministration): 0.60 per 100 person-months
Second primary malignancies AESI, patients (After Coadministration): 12.1%
Serious anemia AESI, EAIR (After Coadministration): 0.04 per 100 person-months
Serious atrial fibrillation and flutter AESI, EAIR (After Coadministration): 0.09 per 100 person-months
Serious atrial fibrillation and flutter AESI, patients (After Coadministration): 1.9%
Serious external ear neoplasm malignant (After Coadministration): 0 (0.0%) n (%)
Serious haematuria (After Coadministration): 0 (0.0%) n (%)
Serious haematuria (major hemorrhage) (After Coadministration): 0 (0.0%) n (%)
Serious hemorrhage AESI, EAIR (After Coadministration): 0.09 per 100 person-months
Serious hemorrhage AESI, patients (After Coadministration): 1.9%
Serious infection AESI, EAIR (After Coadministration): 1.15 per 100 person-months
Serious major hemorrhage AESI, EAIR (After Coadministration): 0.09 per 100 person-months
Serious major hemorrhage AESI, patients (After Coadministration): 1.9%
Serious neutropenia AESI, EAIR (After Coadministration): 0.18 per 100 person-months
Serious neutropenia AESI, patients (After Coadministration): 3.7%
Serious neutropenic sepsis (After Coadministration): 0%
Serious neutrophil count decreased (After Coadministration): 0.0%
Serious second primary malignancies AESI, EAIR (After Coadministration): 0.13 per 100 person-months
Serious second primary malignancies AESI, patients (After Coadministration): 2.8%
Serious squamous cell carcinoma of skin (After Coadministration): 0 (0.0%) n (%)
Skin cancer AESI ≥Grade 3, EAIR (After Coadministration): 0.13 per 100 person-months
Skin cancer AESI, EAIR (After Coadministration): 0.41 per 100 person-months
Skin cancer AESI, patients (After Coadministration): 8.4%
Skin cancer SAE, EAIR (After Coadministration): 0.04 per 100 person-months
Squamous cell carcinoma of skin (After Coadministration): 0.9%
Squamous cell carcinoma of skin ≥Grade 3 (After Coadministration): 1 (0.9%) n (%)
Thrombocytopenia AESI leading to dose interruption (After Coadministration): 0.0%
Thrombocytopenia AESI ≥Grade 3, EAIR (After Coadministration): 0.13 per 100 person-months
Thrombocytopenia AESI ≥Grade 3, patients (After Coadministration): 2.8%
Thrombocytopenia AESI, EAIR (After Coadministration): 0.41 per 100 person-months
Thrombocytopenia AESI, patients (After Coadministration): 8.4%
Thrombocytopenia PT (After Coadministration): 3.7%
Anemia AESI ≥Grade 3, EAIR (During Coadministration): 1.70 per 100 person-months
Anemia AESI, EAIR (During Coadministration): 1.91 per 100 person-months
Atrial fibrillation PT (During Coadministration): 1.4%
Atrial fibrillation and flutter AESI Grade ≥3, EAIR (During Coadministration): 0.33 per 100 person-months
Atrial fibrillation and flutter AESI Grade ≥3, patients (During Coadministration): 1.4%
Atrial fibrillation and flutter AESI, EAIR (During Coadministration): 0.33 per 100 person-months
Atrial fibrillation and flutter AESI, patients (During Coadministration): 1.4%
Atrial flutter PT (During Coadministration): 0.0%
Basal cell carcinoma (During Coadministration): 0.0%
Basal cell carcinoma leading to dose interruption (During Coadministration): 0 (0.0%) n (%)
Basal cell carcinoma ≥Grade 3 (During Coadministration): 0 (0.0%) n (%)
Epistaxis (hemorrhage AESI) (During Coadministration): 1.4%
External ear neoplasm malignant leading to dose interruption (During Coadministration): 1 (0.7%) n (%)
Febrile neutropenia PT (During Coadministration): 2.9%
Grade 3 or higher AESI (During Coadministration): 36 (26.1) n (%)
Haematuria (hemorrhage AESI) (During Coadministration): 1.4%
Haematuria (major hemorrhage) (During Coadministration): 0 (0.0%) n (%)
Haematuria (major hemorrhage) ≥Grade 3 (During Coadministration): 0 (0.0%) n (%)
Haematuria leading to dose interruption (During Coadministration): 0 (0.0%) n (%)
Haematuria ≥Grade 3 (During Coadministration): 0 (0.0%) n (%)
Hemorrhage AESI leading to dose interruption (During Coadministration): 0.7%
Hemorrhage AESI ≥Grade 3, EAIR (During Coadministration): 0.16 per 100 person-months
Hemorrhage AESI ≥Grade 3, patients (During Coadministration): 0.7%
Hemorrhage AESI, EAIR (During Coadministration): 4.04 per 100 person-months
Hemorrhage AESI, patients (During Coadministration): 14.5%
Herpes zoster (During Coadministration): 2.2%
Hypertension AESI ≥Grade 3, EAIR (During Coadministration): 0.17 per 100 person-months
Hypertension AESI ≥Grade 3, patients (During Coadministration): 0.7%
Hypertension AESI, EAIR (During Coadministration): 0.70 per 100 person-months
Hypertension AESI, patients (During Coadministration): 2.9%
Infection AESI leading to dose reduction (During Coadministration): 1.4%
Infection AESI leading to treatment discontinuation (During Coadministration): 4.3%
Infection AESI ≥Grade 3, EAIR (During Coadministration): 5.83 per 100 person-months
Infection AESI, EAIR (During Coadministration): 16.79 per 100 person-months
Major hemorrhage AESI leading to dose interruption (During Coadministration): 0.7%
Major hemorrhage AESI ≥Grade 3, EAIR (During Coadministration): 0.16 per 100 person-months
Major hemorrhage AESI ≥Grade 3, patients (During Coadministration): 0.7%
Major hemorrhage AESI, EAIR (During Coadministration): 0.16 per 100 person-months
Major hemorrhage AESI, patients (During Coadministration): 0.7%
Malignant melanoma (During Coadministration): 0 (0.0%) n (%)
Neutropenia AESI leading to dose reduction (During Coadministration): 0.0%
Neutropenia AESI leading to treatment interruption (During Coadministration): 7.2%
Neutropenia AESI ≥Grade 3, EAIR (During Coadministration): 3.72 per 100 person-months
Neutropenia AESI ≥Grade 3, patients (During Coadministration): 12.3%
Neutropenia AESI, EAIR (During Coadministration): 5.43 per 100 person-months
Neutropenia AESI, patients (During Coadministration): 17.4%
Neutropenic sepsis PT (During Coadministration): 0.0%
Neutropenic sepsis ≥Grade 3 (During Coadministration): 0.0%
Neutrophil count decreased leading to dose reduction (During Coadministration): 0.0%
Opportunistic infection AESI leading to dose reduction (During Coadministration): 0.7%
Opportunistic infection AESI leading to treatment discontinuation (During Coadministration): 0.7%
Opportunistic infection AESI ≥Grade 3, EAIR (During Coadministration): 0.50 per 100 person-months
Opportunistic infection AESI ≥Grade 3, patients (During Coadministration): 3 (2.2%) n (%)
